{"source": "patent US20200316159A1", "about": "“SUSTAINED RELEASE COMPOSITIONS OF KAPPA-OPIOID RECEPTOR AGONIST” (JT PHARMACEUTICALS, INC., priority 2016, published 2020)", "key": {"[1]": {"test_system": "abuse liability (lever pressing for intravenous drug delivery)", "test": "Self-administration model", "format": "in vivo, rat", "description": "Self-Administration Model.\nAddiction/dependence is a critical side effect of opioids and must be evaluated with any new member of this family. The most reliable test of abuse liability with the most translational relevance is a contingent drug self-administration model, in which rats are trained to press a lever for intravenous drug delivery. Sixteen standard self-administration chambers (30×20×20 cm, Med Associates) were housed inside sound-attenuating cubicles fitted with a fan for airflow and to mask noise. Each chamber contained two retractable levers, two stimulus lights, a speaker for tone delivery, and a house light to provide general illumination. In addition, each chamber was equipped with a balanced metal arm and spring leash attached to a swivel (Instech). Tygon® tubing extended through the leash and was connected to a 10 ml syringe mounted on an infusion pump located outside the sound-attenuating cubicle. Rats were anesthetized with i.p. injections of ketamine (66 mg/kg; Vedcolnc, St Joseph, Mo., USA), xylazine (1.3 mg/kg; Lloyd Laboratories, Shenandoah, Iowa, USA), and equithesin (0.5 ml/kg); sodium pentobarbital (4 mg/kg), chloral hydrate (17 mg/kg), and 21.3 mg/kg magnesium sulfate heptahydrate dissolved in 44% propylene glycol, 10% ethanol solution). Ketorolac (2.0 mg/kg, i.p. Sigma, St. Louis, Mo., USA) was given just prior to surgery as an analgesic. One end of a silastic catheter was inserted 33 mm into the external right jugular and secured with 4.0 silk sutures. The other end ran subcutaneously and exited from a small incision just below the scapula. This end is attached to an infusion harness (Instech Solomon, Plymouth Meeting, Pa., USA) that provides access to an external port for IV drug delivery. […]\nDuring self-administration, rats received an IV infusion (0.1 ml) of 10 U/ml heparinized saline before each session. […] Cocaine was chosen for comparison purposes because it is readily self-administered."}, "[2]": {"test_system": "rewarding properties (compartment preference)", "test": "Conditioned place preference", "format": "in vivo, rat", "details": "20 mg/kg p.o., alternate treatment over eight days; listed as JT09", "method": "Conditioned Place Preference.\nTo test whether JT09 was able to condition appetitive behaviors, we used a conditioned place procedure. On day one, rats were habituated to a three-compartment apparatus for 10 min. One compartment was black with a grid floor and the other white with a rod floor. A smaller center compartment was gray with a solid floor. The amount of time spent in each compartment was recorded. The side in which the rats spent the least amount of time on habituation day was paired with JT09, in that rats receive the compound via oral gavage immediately before compartment placement. On alternating days, rats were treated with saline and confined in the opposite compartment. Rats were confined to each compartment for 25 minutes. Test rats were orally gavaged with saline and given access to the entire apparatus for 10 minutes. The amount of time spent in each compartment was recorded."}, "kappa opioid receptor": {"molecular_target": "kappa opioid receptor (Homo sapiens, UniProt P41145)", "sequence (P41145 whole entry, the tested form may be a part)": "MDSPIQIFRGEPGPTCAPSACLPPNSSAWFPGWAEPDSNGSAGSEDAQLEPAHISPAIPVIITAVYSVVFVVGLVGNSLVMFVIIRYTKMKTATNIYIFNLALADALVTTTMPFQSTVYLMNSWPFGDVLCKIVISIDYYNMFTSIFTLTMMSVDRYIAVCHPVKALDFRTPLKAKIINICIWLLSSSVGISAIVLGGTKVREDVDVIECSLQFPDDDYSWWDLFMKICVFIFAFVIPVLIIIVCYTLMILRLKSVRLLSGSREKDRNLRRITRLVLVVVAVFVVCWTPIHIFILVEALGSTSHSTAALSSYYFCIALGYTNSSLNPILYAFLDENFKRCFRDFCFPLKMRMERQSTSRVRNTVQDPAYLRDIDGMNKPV", "test": "Opioid receptor activation assay, DiscoveRx PathHunter Beta-Arrestin, kappa", "format": "cell-based", "description": "Opioid Receptor Activation Assay.\nPathHunter™ Beta-Arrestin GPCR Functional Profiling and Screening cell lines that express the individual opioid receptors were obtained from DiscoveRx (Fremont, Calif.). These cells express the kappa (or mu or delta) opioid receptor fused to a proprietary β-galactosidase enzyme fragment and the […]-arrestin gene fused to an enzyme acceptor (the remaining fragment of β-galactosidase). Upon activation of the receptor, β-arrestin is recruited to the GPCR and the β-galactosidase is activated through enzyme complementation. Cells were grown using standard cell culture techniques and then plated at 30,000 cells/well in 90 μl in a 96 well white, clear bottom plate and incubated overnight. Dilutions were prepared in dilution buffer (HBBS, 20 mMHepes, 0.1% BSA) and 10 μl added per well. Plates were then incubated for 90 min at 37° C. in a water-saturated atmosphere. Plates were then allowed to come to room temp and DiscoveRx's proprietary developing agent added as recommended by the manufacturer. This agent contains a detergent, 6-O-β-galactopyranosyl-luciferen and luciferase. Plates were then incubated for 1 hr at room temperature before being read on a luminometer. Antagonist studies were performed in an identical manner except after the overnight incubation 10 μl media was removed and replaced with drug or naloxone at the indicated concentration. […] To calculate % maximal luminescence, background was subtracted from the experimental values and this was divided by maximal luminescence and multiplied by 100.\nTo confirm this, and to determine their relative activities, we assessed their efficiency using PathHunter™ Beta-Arrestin GPCR Functional Profiling and Screening cell lines from DiscoveRx (Fremont, Calif.) as described in the Materials and Methods section."}}, "note": "Entries after “also recorded” stand apart in the source; their conditions may differ.", "data": [{"compound": "CCCC[C@@H](NC(=O)[C@@H](Cc1ccccc1)NC(=O)[C@H](N)Cc1ccccc1)C(=O)N[C@H](CCCCN(C)C)C(=O)NCc1ccncc1", "note": "[Compound 9]", "values": [{"measurement": "lever responding in operant self-administration", "setting": "[1]; IV infusion 20 mg/kg/inf, 2-hr sessions, five-day period, n=8", "value": "failed to maintain lever responding"}, {"measurement": "number of infusions in self-administration", "setting": "[1]; JT09 IV, days 2-5 compared to day one", "value": "decreased on all 4 days"}, {"measurement": "conditioned place preference for drug-paired compartment over saline", "setting": "[2]", "value": "did not develop a preference; also recorded: had no effect on compartment placement"}, {"measurement": "EC50, activation of kappa opioid receptor", "setting": "kappa opioid receptor; PathHunter Beta-Arrestin", "value": "low nM range"}, {"measurement": "EC50", "setting": "kappa opioid receptor; PathHunter Beta-Arrestin, 3-6 repeats, read-out: 95% confidence levels of EC50, activation of kappa receptors", "value": "15.3 to 54.5", "unit": "nM"}, {"measurement": "agonist selectivity for kappa over both mu- and delta-opioid receptors", "setting": "kappa opioid receptor; minimal estimate", "value": "> 33,400"}]}]}
